According to PMC9865396, “The Effect of the Particle Size Reduction on the Biorelevant Solubility and Dissolution of Poorly Soluble Drugs with Different Acid-Base Character” (Pharmaceutics, 2023):
Where a name gives a salt, the structure may show the parent alone.

How the values were obtained:
[1] = particle size distribution by laser diffractometry (Mastersizer 2000); type: physicochemical
Procedure: For Laser Diffractometry, 0.1 mL of milled suspensions were dispersed in 100 mL of demineralized water at a mixing speed of 1500 rpm with Mastersizer Hydro 2000 SM small volume dispersion unit. The particle size of the samples was measured at 25 ± 1 °C using a Mastersizer 2000 (Malvern Instruments Ltd., Malvern, UK). Laser diffraction measures the angular distribution of light scattered by the diluted sample and detects particles from 0.1 to 3000 μm. General purpose measurement with enhanced sensitivity mode was utilized, which was also useful for sample characterizations containing irregularly shaped particles. Every sample was measured three times individually, and the mean values were reported to track the changing of the particle size and span values (width of particle size distributions).

[2] = equilibrium solubility by the saturation shake-flask (SSF) method in FaSSIF/FeSSIF blank and full media; conditions: blank buffers, 37 °C
Procedure: The equilibrium solubility of the samples was determined by the SSF method. The concentrations for the blank buffers were available at the manufacturer. FaSSIF full and FeSSIF full buffers were prepared from instant SIF powder added to the blank buffers and could be used for 48 h. For FaSSIF, a full 0.224 g of SIF powder was dissolved in 100 mL of blank phosphate buffer (pH = 6.5). After 2 h, a slightly opalesque solution was formed and it meant that it was ready for the measurement. For FeSSIF, a full 1.12 g of SIF powder was dissolved in 100 mL of blank acetate buffer (pH = 5.0) and was ready to use. The samples were added in excess to the aqueous buffer solutions to produce a suspension. To measure the original samples and the micronized forms in the presence of the excipients, the same 1 to 1 mass ratio was used as in the case of nanonized samples: a physical mixture was prepared from the API and the PVA or PVPK-25.
The prepared suspensions were vigorously stirred for 6 h at a controlled 37.0 ± 0.1 °C temperature followed by a sedimentation period of 18 h. […] The concentration of the saturated solutions was determined by UV spectroscopy using a Jasco V-550 UV/VIS spectrophotometer. The aliquots taken out from solubility experiments were diluted if necessary with the buffer used for the given solubility measurement, and the absorbance was measured at the λmax. […]

[3] = pKa and ionization state (species distribution) at the pH of the media; type: physicochemical
[4] = ampholyte; cited from earlier work
[5] = original and micronized compounds before solubility measurement, upper size limit for 10% of particles
[6] = original and micronized compounds before solubility measurement, upper size limit for 50% of particles
[7] = original and micronized compounds before solubility measurement, upper size limit for 90% of particles
[8] = solid phase at end of solubility measurement, pH = 5.0
[9] = solid phase at end of solubility measurement, pH = 6.5
[10] = pH = 5.0, calculated from protonation microconstants

Structure (SMILES) | d = 0.1 [1, 5] [µm] | d = 0.5 [1, 6] [µm] | d = 0.9 [1, 7] [µm] | d = 0.1 [1, 8] [µm] | d = 0.5 [1, 8] [µm] | d = 0.9 [1, 8] [µm] | d = 0.1 [1, 9] [µm] | d = 0.5 [1, 9] [µm] | d = 0.9 [1, 9] [µm] | solubility in pH = 5.0 medium compared with pH = 6.5 medium [2] | anionic form [3, 10] [%] | neutral form [3, 10] [%] | zwitterionic form [3, 10] [%] | anionic form ([3]; pH = 6.5, calculated from protonation microconstants) [%] | pKa1 [4] | pKa2 [4] | H2A (non-ionized form) ([3]; pH = 5.0) [%] | HA− (monoanionic form) ([3]; pH = 5.0) [%] | molecules protonated ([3]; pH = 5.0) [%] | molecule in deprotonated state ([3]; pH = 6.5)
O=C(O)c1cccnc1Nc1cccc(C(F)(F)F)c1 [NIF original, Niflumic acid] | 71.45 | 183.25 | 579.83 | 56.21 | 151.25 | 488.95 | 19.07 | 58.55 | 128.24 | approximately ten times lower | 78.2 | 1.2 | 20.6 | 99.1 | 2.26 | 4.44 |  |  |  | 
NS(=O)(=O)c1cc(C(=O)O)c(NCc2ccco2)cc1Cl [FUR original, furosemide] | 7.36 | 62.46 | 294.13 | 16.24 | 51.23 | 110.56 | 4.72 | 14.63 | 35.04 |  |  |  |  |  |  |  | 3.3 | 96.7 |  | 
COc1ccc(Cc2nccc3cc(OC)c(OC)cc23)cc1OC [PAP original, papaverine hydrochloride] | 153.97 | 488.62 | 887.93 | 4.60 | 49.42 | 189.96 | 7.96 | 33.39 | 98.40 |  |  |  |  |  |  |  |  |  | 95.8 | approximately 50%
